Experimental data as given in ChEMBL document CHEMBL5506022, “Discovery of Novel Dual Inhibitors Targeting Mutant IDH1 and NAMPT for the Treatment of Glioma with IDH1Mutation” (J Med Chem, 2024).
Active and inactive are the calls of the source. The calls are words filed in the database; no cut-off is given here.

Columns and labels:
[1] = target: Isocitrate dehydrogenase [NADP] cytoplasmic (Homo sapiens, UniProt O75874, R132C); experiment: Inhibition of recombinant IDH1 R132C mutant (unknown origin) using alpha-ketoglutarate as substrate incubated for 60 mins in presence of NADPH by fluorescence microplate reader
Isocitrate dehydrogenase [NADP] cytoplasmic (Homo sapiens, UniProt O75874, R132C), sequence (O75874 2-414 R132C limits assumed): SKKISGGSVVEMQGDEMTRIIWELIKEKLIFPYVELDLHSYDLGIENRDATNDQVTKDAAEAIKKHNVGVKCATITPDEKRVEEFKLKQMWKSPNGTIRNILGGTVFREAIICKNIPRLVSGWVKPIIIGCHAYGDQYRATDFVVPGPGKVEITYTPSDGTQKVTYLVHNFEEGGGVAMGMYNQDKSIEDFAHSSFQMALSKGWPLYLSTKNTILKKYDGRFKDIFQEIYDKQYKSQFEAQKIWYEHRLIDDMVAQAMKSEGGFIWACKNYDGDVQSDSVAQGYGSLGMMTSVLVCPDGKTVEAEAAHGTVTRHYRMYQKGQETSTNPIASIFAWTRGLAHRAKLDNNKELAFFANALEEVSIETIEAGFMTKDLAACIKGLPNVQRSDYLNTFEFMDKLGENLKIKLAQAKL

[2] = target: Isocitrate dehydrogenase [NADP] cytoplasmic (Homo sapiens, UniProt O75874); experiment: Inhibition of wildtype IDH1 (unknown origin) using DL-isocitrate as substrate incubated for 60 mins in presence of NADP by fluorescence microplate reader
Isocitrate dehydrogenase [NADP] cytoplasmic (Homo sapiens, UniProt O75874), sequence (O75874 whole entry): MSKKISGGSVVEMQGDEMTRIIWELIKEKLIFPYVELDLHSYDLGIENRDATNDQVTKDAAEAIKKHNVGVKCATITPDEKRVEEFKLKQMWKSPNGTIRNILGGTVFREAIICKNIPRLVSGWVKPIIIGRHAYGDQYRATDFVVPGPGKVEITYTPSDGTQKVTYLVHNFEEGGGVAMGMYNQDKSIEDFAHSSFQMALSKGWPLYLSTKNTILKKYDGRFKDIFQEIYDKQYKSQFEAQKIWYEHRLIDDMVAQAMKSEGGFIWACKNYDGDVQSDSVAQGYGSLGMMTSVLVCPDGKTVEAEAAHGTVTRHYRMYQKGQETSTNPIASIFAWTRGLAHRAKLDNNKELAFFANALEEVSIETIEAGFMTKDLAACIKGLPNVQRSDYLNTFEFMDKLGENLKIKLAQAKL

[3] = target: Nicotinamide phosphoribosyltransferase (Homo sapiens, UniProt P43490)
Nicotinamide phosphoribosyltransferase, sequence (P43490 whole entry): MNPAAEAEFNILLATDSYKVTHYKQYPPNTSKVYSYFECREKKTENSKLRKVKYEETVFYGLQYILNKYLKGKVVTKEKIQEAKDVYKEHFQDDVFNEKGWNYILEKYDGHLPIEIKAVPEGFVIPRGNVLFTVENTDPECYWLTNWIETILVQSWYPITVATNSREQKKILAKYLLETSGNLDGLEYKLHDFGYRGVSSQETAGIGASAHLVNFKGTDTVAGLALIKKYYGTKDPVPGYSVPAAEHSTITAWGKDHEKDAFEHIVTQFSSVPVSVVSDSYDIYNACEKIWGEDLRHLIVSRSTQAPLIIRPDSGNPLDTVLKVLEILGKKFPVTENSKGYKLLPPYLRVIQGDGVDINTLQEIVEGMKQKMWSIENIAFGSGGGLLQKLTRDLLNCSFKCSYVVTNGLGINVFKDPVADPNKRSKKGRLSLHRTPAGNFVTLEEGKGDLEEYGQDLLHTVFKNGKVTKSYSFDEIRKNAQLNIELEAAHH

[4] = system: U-87 MG; experiment: Antiproliferative activity against human U-87 MG cells harboring wildtype IDH1 assessed as inhibition of cell growth incubated for 24 hrs by CCK8 assay; assay type: functional, cell-based, U-87MG ATCC
[5] = system: U-87 MG; experiment: Antiproliferative activity against human U-87 MG cells harboring wildtype IDH1 assessed as inhibition of cell growth incubated for 48 hrs by CCK8 assay; assay type: functional, cell-based, U-87MG ATCC
[6] = system: U-87 MG; experiment: Antiproliferative activity against human U-87 MG cells harboring wildtype IDH1 assessed as inhibition of cell growth incubated for 72 hrs by CCK8 assay; assay type: functional, cell-based, U-87MG ATCC
[7] = system: U-87 MG; assay type: functional, cell-based, U-87MG ATCC; conditions: Homo sapiens, 24 h
[8] = system: U-87 MG; assay type: functional, cell-based, U-87MG ATCC; conditions: Homo sapiens, 48 h
[9] = system: U-87 MG; assay type: functional, cell-based, U-87MG ATCC; conditions: Homo sapiens, 72 h
[10] = system: U-87 MG; experiment: Synergistic antiproliferative activity against human U-87 MG cells harboring wildtype IDH1 assessed as inhibition of cell growth incubated for 48 hrs in presence of FK866 by CCK8 assay; assay type: functional, cell-based, U-87MG ATCC
[11] = system: U-87 MG; assay type: functional, cell-based, U-87MG ATCC; conditions: Homo sapiens, 48 h; remark: listed apart in the source
[12] = system: U-87 MG; experiment: Synergistic antiproliferative activity against human U-87 MG cells harboring wildtype IDH1 assessed as combination index incubated for 48 hrs in presence of FK866 by CCK8 assay; assay type: functional, U-87MG ATCC
[13] = system: U-87 MG; assay type: functional, Homo sapiens, U-87MG ATCC; conditions: time 48 hrs
[14] = system: U-87 MG; assay type: functional, Homo sapiens, U-87MG ATCC; conditions: time 48 hrs; remark: listed apart in the source
[15] = system: U-87 MG; assay type: functional, U-87MG ATCC; conditions: Homo sapiens, time 48 hrs, read-out: Activity
[16] = system: U-87 MG; assay type: functional, Homo sapiens, U-87MG ATCC; conditions: dose 1 µM; time 48 hrs
[17] = system: U-87 MG; assay type: functional, Homo sapiens, U-87MG ATCC; conditions: dose 1 µM; time 48 hrs; remark: listed apart in the source
[18] = system: U-87 MG; assay type: functional, Homo sapiens, U-87MG ATCC; conditions: dose 1 µM; time 48 hrs; remark: listed apart in the source
[19] = system: U-87 MG; experiment: cells; conditions: Homo sapiens, 48 h, read-out: Activity
[20] = system: U-87MG ATCC; experiment: Effect on intracellular NADP+ level in human U-87 MG cells harboring wildtype IDH1; assay type: functional, cell-based
[21] = system: U-87MG ATCC; assay type: functional, cell-based; conditions: Homo sapiens, dose 0.5 µM, time 48.0 hrs
[22] = system: U-87 MG; assay type: functional, Homo sapiens, U-87MG ATCC; conditions: dose 300 mg/kg; route po; time 35 day
[23] = system: U-87 MG; assay type: functional, Homo sapiens, U-87MG ATCC; conditions: dose 300 mg/kg; route po; time 35 day; remark: listed apart in the source
[24] = system: U-87 MG; assay type: functional, organism-based; conditions: Homo sapiens; U-87MG ATCC; dose 300.0 mg/kg, route po, time 35.0 day

Question: Which IC50 [1] does the source give for CC(C)[C@H]1COC(=O)N1c1ccnc(N[C@@H](C)c2ccc(NC(=O)CCNC(=O)/C=C/c3cccnc3)cc2)n1 here?
Answer: The IC50 was 284 nM.

Question: And the IC50 [2]?
Answer: The IC50 was 3240 nM.

Question: And the IC50 [3]?
Answer: Its IC50 is 22.4 nM.

Question: Which results are given for C[C@H](Nc1nccc(N2C(=O)OC[C@@H]2Cc2ccccc2)n1)c1ccc(-c2ccc(NC(=O)c3ccc4nccn4c3)cc2)cc1?
Answer: IC50 [1]: 77.4 nM; IC50 [2]: 9740 nM; IC50 [3]: 58.1 nM

Question: What does the source list for CC(C)[C@H]1COC(=O)N1c1ccnc(N[C@@H](C)c2ccc(NC(=O)C3CCN(C(=O)/C=C/c4cccnc4)CC3)cc2)n1?
Answer: IC50 [1]: 308 nM; IC50 [2]: 11100 nM; IC50 [3]: 81.2 nM

Question: For CC(C)[C@H]1COC(=O)N1c1ccnc(N[C@@H](C)c2ccc(-c3ccc(NC(=O)c4cccnc4)cc3)cc2)n1, which IC50 [1] is on record?
Answer: The IC50 was 509 nM.

Question: And the IC50 [2]?
Answer: Its IC50 is 36700 nM.

Question: What about the IC50 [3] of the same compound?
Answer: Its IC50 is 109 nM.

Question: How did the IC50 [1] turn out when CC(C)[C@H]1COC(=O)N1c1ccnc(N[C@@H](C)c2ccc(-c3ccc(NC(=O)c4cc5ncccc5o4)cc3)cc2)n1 was run?
Answer: The IC50 was 232 nM.

Question: What about the IC50 [2] of the same compound?
Answer: Its IC50 is 5720 nM.

Question: And the IC50 [3]?
Answer: Its IC50 is 279 nM.

Question: How did the IC50 [4] turn out when N#Cc1ccnc(N2C(=O)CC[C@H]2C(=O)N(c2cncc(F)c2)[C@H](C(=O)NC2CC(F)(F)C2)c2ccccc2Cl)c1 [IVOSIDENIB] was run?
Answer: Its IC50 is 100000 nM.

Question: What about the IC50 [5] of the same compound?
Answer: The IC50 was 89300 nM.

Question: And the IC50 [6]?
Answer: Its IC50 is 67200 nM.

Question: And the IC50 [7]?
Answer: The IC50 was 3060 nM.

Question: What about the IC50 [8] of the same compound?
Answer: The IC50 was 1020 nM.

Question: And the IC50 [9]?
Answer: Its IC50 is 980 nM.

Question: What about the IC50 [10] of the same compound?
Answer: The IC50 was 2510 nM.

Question: What about the IC50 [11] of the same compound?
Answer: The IC50 was 560 nM.

Question: What about the CI [12] of the same compound?
Answer: The CI was 0.78.

Question: And the CI [13]?
Answer: The CI was 0.88.

Question: What about the CI [14] of the same compound?
Answer: The CI was 0.88.

Question: What about the viability at 1 µM [15] of the same compound?
Answer: The viability at 1 µM was 27.8%.

Question: And the Activity [16]?
Answer: The Activity was 49.6%.

Question: What about the Activity [17] of the same compound?
Answer: Its Activity is 18%.

Question: What about the Activity [18] of the same compound?
Answer: Its Activity is 4.59%.

Question: What about the viability at 1 µM [19] of the same compound?
Answer: Its viability at 1 µM is 37.8%.

Question: What does the source list for CC(C)[C@H]1COC(=O)N1c1ccnc(N[C@@H](C)c2ccc(NC(=O)CCCCNC(=O)/C=C/c3cccnc3)cc2)n1?
Answer: IC50 [1]: 405 nM; IC50 [2]: 6180 nM; IC50 [3]: 25.5 nM

Question: What does the source list for CC(C)[C@H]1COC(=O)N1c1ccnc(N[C@@H](C)c2ccc(-c3ccc(NC(=O)COc4cccnc4)cc3)cc2)n1?
Answer: IC50 [1]: 114 nM; IC50 [2]: 8520 nM; IC50 [4]: 1020 nM; IC50 [5]: 890 nM; IC50 [6]: 540 nM; IC50 [7]: 1660 nM; IC50 [8]: 1180 nM; IC50 [9]: 570 nM; IC50 [3]: 33.1 nM

Question: What does the source list for C[C@H](Nc1nccc(N2C(=O)OC[C@@H]2[C@@H](C)OC(C)(C)C)n1)c1ccc(-c2ccc(NC(=O)COc3cccnc3)cc2)cc1?
Answer: IC50 [1]: 252 nM; IC50 [2]: 33900 nM; IC50 [3]: 51.4 nM

Question: What does the source list for C[C@H](Nc1nccc(N2C(=O)OC[C@@H]2[C@@H](C)O)n1)c1ccc(-c2ccc(NC(=O)c3ccc4nccn4c3)cc2)cc1?
Answer: IC50 [1]: 102 nM; IC50 [2]: 15700 nM; IC50 [3]: 24.8 nM

Question: Which results are given for C[C@H](Nc1nccc(N2C(=O)OC[C@@H]2c2ccccc2)n1)c1ccc(-c2ccc(NC(=O)/C=C/c3cccnc3)cc2)cc1?
Answer: IC50 [1]: 147 nM; IC50 [2]: 36500 nM; IC50 [3]: 221 nM

Question: What does the source list for Cc1cc([C@H](C)Nc2nccc(N3C(=O)OC[C@@H]3[C@H](C)F)n2)ncc1-c1ccnc(C(F)(F)F)c1?
Answer: IC50 [4]: 20100 nM; IC50 [5]: 7570 nM; IC50 [6]: 3540 nM; IC50 [7]: 1040 nM; IC50 [8]: 440 nM; IC50 [9]: 360 nM; IC50 [10]: 1690 nM; IC50 [11]: 450 nM; CI [12]: 0.83; CI [13]: 0.91; Activity [20]: inactive; Activity [21]: inactive; MST [22]: 23.5 days; MST [23]: 26.5 days; Activity [24]: Active; viability at 1 µM [19]: 34.7%

Question: What does the source list for C[C@H](Nc1nccc(N2C(=O)OC[C@@H]2[C@@H](C)OC(C)(C)C)n1)c1ccc(-c2ccc(NC(=O)c3ccc4nccn4c3)cc2)cc1?
Answer: IC50 [1]: 57 nM; IC50 [2]: 5790 nM; IC50 [3]: 12.6 nM

Question: CC(C)[C@H]1COC(=O)N1c1ccnc(N[C@@H](C)c2ccc(-c3ccc(NC(=O)NCc4cccnc4)cc3)cc2)n1 was tested. Which IC50 [1] did it give?
Answer: The IC50 was 1020 nM.

Question: What about the IC50 [2] of the same compound?
Answer: The IC50 was 27000 nM.

Question: And the IC50 [3]?
Answer: Its IC50 is 374 nM.

Question: What does the source list for C[C@H](Nc1nccc(N2C(=O)OC[C@@H]2[C@H](C)F)n1)c1ccc(-c2ccc(NC(=O)/C=C/c3cccnc3)cc2)cc1?
Answer: IC50 [1]: 59.3 nM; IC50 [2]: 6850 nM; IC50 [3]: 24.4 nM

Question: With C[C@H](Nc1nccc(N2C(=O)OC[C@@H]2Cc2ccccc2)n1)c1ccc(-c2ccc(NC(=O)COc3cccnc3)cc2)cc1 as the compound, how does the IC50 [1] read?
Answer: Its IC50 is 294 nM.

Question: And the IC50 [2]?
Answer: The IC50 was 35900 nM.

Question: And the IC50 [3]?
Answer: The IC50 was 65.4 nM.
